Values quoted from earlier work as cited in patent US20160287532A1 (SignPath Pharma Inc., priority 2015, published 2016).
Like-named read-outs stand apart in the source and are kept apart here.

Key:
[1] = tested on: IL-8; details: human articular chondrocytes
[2] = tested on: IL-8; details: viral induced ARDS mouse model
[3] = target: T1, MMP-3 (Homo sapiens, UniProt P08254); details: IL-1β stimulated chondrocytes
T1 construct: endogenous in cells; host or cells: IL-1β stimulated chondrocytes

[4] = tested on: IL-6; details: rats with non-bacterial prostatitis
[5] = tested on: IL-8; details: monocytes and macrophages
[6] = tested on: MMP-2; details: A549 in vitro
[7] = tested on: monocyte chemoattractant protein-1 (MCP-1); details: monocytes and macrophages
[8] = tested on: MMP-9; details: chondrocytes
[9] = tested on: interferon-γ; details: viral induced ARDS mouse model
[10] = tested on: TIMP-4; details: high concentrations of curcumin
[11] = tested on: SOX9; details: IVD cells of patients with acute spinal injury
[12] = tested on: IL-2; details: splenic T lymphocytes
[13] = tested on: MMP-2; details: MDA breast cancer cell line
[14] = tested on: MMP-3; details: curcumin added to cell culture
[15] = tested on: TNF-α; details: monocytes, high glucose environment
[16] = tested on: IL-6; details: monocytes, high glucose environment
[17] = tested on: IL-12; details: peritoneal macrophages
[18] = tested on: IL-6
[19] = tested on: macrophage inflammatory protein-1α (MIP-1α); details: monocytes and macrophages
[20] = tested on: MMP-9; details: A549 in vitro
[21] = target: T2, MMP-9 (Homo sapiens, UniProt P14780); details: helicobacter pylori infected cells; dose dependent
T2 construct: endogenous in cells; host or cells: human gastric epithelial cells infected with Helicobacter pylori

[22] = tested on: IL-8; details: 20 μM curcumin
[23] = tested on: MMP-3; details: equine cartilage explants; dose dependent
[24] = tested on: MMP-1; details: IL-1β pre-stimulated disc cells
[25] = tested on: IL-8; details: rats with non-bacterial prostatitis
[26] = tested on: IL-6; details: rheumatoid synovial fibroblasts
[27] = tested on: MMP-3; details: human astroglioma cells
[28] = tested on: NF-κB; details: IVD cells of patients with acute spinal injury
[29] = tested on: MCP-1; details: viral induced ARDS mouse model
[30] = tested on: IL-1β; details: monocytes and macrophages
[31] = tested on: pro-inflammatory cytokines; details: multiple myeloma cell lines
[32] = tested on: MMP-9; details: MDA breast cancer cell line
[33] = tested on: pro-inflammatory cytokines; details: colon carcinoma cell lines
[34] = tested on: MMP-9; details: human astroglioma cells
[35] = tested on: TNF-α; details: monocytes and macrophages
[36] = tested on: TNF-α; details: Wistar albino rats, experimental acute pancreatitis
[37] = tested on: MMP-3; details: helicobacter pylori infected cells; dose dependent
[38] = tested on: TNF-α; details: acute pancreatitis mouse model
[39] = tested on: type II collagen-induced arthritis; details: oral, mice; dose dependent manner
[40] = tested on: MMP-1; details: oral, mice; dose dependent manner
[41] = tested on: MMP-3
[42] = tested on: acute pancreatitis; details: acute pancreatitis mouse model
[43] = tested on: MCP-1; details: monocytes, high glucose environment
[44] = tested on: IL-8; details: human esophageal epithelial cells
[45] = tested on: interferon-γ; details: splenic T lymphocytes
[46] = tested on: TNF-α; details: peritoneal macrophages
[47] = tested on: MMP-2; details: MDA-MB-231 cells
[48] = tested on: IL-8; details: monocytes, high glucose environment
[49] = tested on: TIMP-2; details: high concentrations of curcumin
[50] = tested on: IL-6; details: viral induced ARDS mouse model
[51] = tested on: MMP-3; details: oral, mice; dose dependent manner
[52] = tested on: TIMP-1; details: MDA-MB-231 cells
[53] = tested on: IL-6; details: Wistar albino rats, experimental acute pancreatitis
[54] = if injected intravenously
[55] = tested on: NF-κB; details: chondrocytes
[56] = tested on: IL-1β
[57] = tested on: TNF-α; details: rats with non-bacterial prostatitis
[58] = tested on: COX2; details: chondrocytes
[59] = tested on: TIMP-1; details: high concentrations of curcumin
[60] = tested on: viral induced acute respiratory distress syndrome; details: viral induced ARDS mouse model
[61] = tested on: TIMP-3; details: high concentrations of curcumin
[62] = tested on: MMP-1; details: human astroglioma cells
[63] = tested on: pro-inflammatory cytokines; details: hepatocellular carcinoma cell lines
[64] = tested on: collagen type II; details: IVD cells of patients with acute spinal injury
[65] = tested on: pro-inflammatory cytokines; details: pancreatic carcinoma cell lines
[66] = tested on: IL-8; details: IVD cells pre-treated with IL-1β
[67] = tested on: MMP-13; details: IVD cells pre-treated with IL-1β
[68] = tested on: MMP-3; details: IVD cells pre-treated with IL-1β
[69] = tested on: IL-6; details: IVD cells pre-treated with IL-1β
[70] = tested on: MMP-1; details: IVD cells pre-treated with IL-1β
[71] = tested on: COX-2; details: 10 μM EGCG, IL-1β stimulated
[72] = tested on: MMP-3; details: 10 μM EGCG, IL-1β stimulated
[73] = tested on: IL-6; details: 10 μM EGCG, IL-1β stimulated
[74] = tested on: IL-8; details: 10 μM EGCG, IL-1β stimulated
[75] = tested on: MMP-1; details: 10 μM EGCG, IL-1β stimulated
[76] = tested on: MMP-13; details: 10 μM EGCG, IL-1β stimulated
[77] = tested on: MMP-1; details: treated IVD samples
[78] = tested on: MMP-3; details: after treatment; decreased from 0.9 ng/mg tissue

T2 sequence (P14780 94-707): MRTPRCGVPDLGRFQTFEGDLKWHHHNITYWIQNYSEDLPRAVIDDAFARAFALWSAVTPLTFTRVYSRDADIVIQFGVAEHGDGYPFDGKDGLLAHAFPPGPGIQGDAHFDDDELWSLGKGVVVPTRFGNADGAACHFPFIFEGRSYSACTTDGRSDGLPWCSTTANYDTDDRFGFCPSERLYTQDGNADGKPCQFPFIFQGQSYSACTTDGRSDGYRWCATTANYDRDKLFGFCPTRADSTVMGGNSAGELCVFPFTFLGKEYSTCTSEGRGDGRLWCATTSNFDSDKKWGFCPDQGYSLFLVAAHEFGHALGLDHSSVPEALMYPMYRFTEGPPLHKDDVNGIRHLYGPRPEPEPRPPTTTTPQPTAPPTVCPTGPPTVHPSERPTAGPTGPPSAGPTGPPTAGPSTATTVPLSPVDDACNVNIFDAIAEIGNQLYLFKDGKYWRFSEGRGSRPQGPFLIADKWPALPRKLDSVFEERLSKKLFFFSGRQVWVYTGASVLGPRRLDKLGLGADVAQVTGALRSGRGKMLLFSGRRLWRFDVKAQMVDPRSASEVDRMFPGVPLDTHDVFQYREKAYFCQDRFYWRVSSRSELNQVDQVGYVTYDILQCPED
T1 sequence (P08254 100-477): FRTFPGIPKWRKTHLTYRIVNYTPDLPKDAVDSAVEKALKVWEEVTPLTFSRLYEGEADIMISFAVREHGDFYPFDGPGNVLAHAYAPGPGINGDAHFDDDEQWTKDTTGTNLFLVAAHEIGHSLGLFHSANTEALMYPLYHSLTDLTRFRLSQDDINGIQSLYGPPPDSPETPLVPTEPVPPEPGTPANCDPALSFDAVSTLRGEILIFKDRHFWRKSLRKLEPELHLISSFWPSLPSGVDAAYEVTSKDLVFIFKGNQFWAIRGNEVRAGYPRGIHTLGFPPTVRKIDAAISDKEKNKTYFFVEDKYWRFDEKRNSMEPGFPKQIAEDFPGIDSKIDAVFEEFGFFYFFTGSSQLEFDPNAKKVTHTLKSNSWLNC

## COc1cc(/C=C/C(=O)/C=C(O)/C=C/c2ccc(O)c(OC)c2)ccc1O [curcumin, 1,7-bis(4-hydroxy-3-methoxyphenyl)-1,6-heptadiene-3,5-dione]
[1]
  release of IL-8: block
[2]
  expression of IL-8: reduced
[3]
  MMP-3 activity: inhibited
[4]
  IL-6 expression: reduced
[5]
  IL-8 release: suppresses
[6]
  MMP-2: Inhibition
[7]
  MCP-1 release: suppresses
[8]
  MMP-9 regulation: down regulation
[9]
  expression of interferon-γ: reduced
[10]
  TIMP-4: up-regulated
[11]
  IL-1 inhibition of SOX9 expression: reversed
[12]
  expression of IL-2: inhibited
[13]
  MMP-2: inhibited
[14]
  MMP-3: dose dependent suppression
[15]
  release of TNF-α: markedly reduced
[16]
  release of IL-6: markedly reduced
[17]
  expression of IL-12: inhibited
[18]; 10 μM curcumin
  expression of IL-6 decreased: 50%
[18]; 20 μM curcumin
  expression of IL-6 decreased: 70%
[19]
  MIP-1α release: suppresses
[20]
  MMP-9: Inhibition
[21]
  MMP-9 activity: suppressed
[22]
  IL-8 expression reduced: 50%
[23]
  IL-1β stimulated MMP-3 release: reduced
[24]; 5 μM curcumin
  reduction in MMP-1 expression: 22%
[24]; 10 μM curcumin
  reduction in MMP-1 expression: 60%
[24]; 20 μM curcumin
  reduction in MMP-1 expression: 78%
[25]
  IL-8 expression: reduced
[26]
  release of IL-6: block
[27]
  MMP-3: Suppression
[28]
  IL-1 induced NF-κB activity: blocked
[29]
  expression of MCP-1: reduced
[30]
  IL-1β release: suppresses
[31]
  pro-inflammatory cytokines: suppressed
[32]
  MMP-9: inhibited
[33]
  pro-inflammatory cytokines: suppressed
[34]
  MMP-9: Suppression
[35]
  TNF-α release: suppresses
[36]
  TNF-α levels: reduced
[37]
  MMP-3 activity: suppressed
[38]
  TNF-α levels: suppression
[39]
  type II collagen-induced arthritis: suppress
[40]
  MMP-1 expression in joints: suppress
[41]; 10 μM curcumin
  MMP-3 expression reduced: 70%
[41]; 20 μM curcumin
  MMP-3 expression reduced: 75%
[42]
  pancreatic injury: decreased
[43]
  release of MCP-1: markedly reduced
[44]
  release of IL-8: block
[45]
  production of interferon-γ: inhibited
[46]
  production of TNF-α: inhibited
[47]
  MMP-2: down-regulated
[48]
  release of IL-8: markedly reduced
[49]
  TIMP-2: up-regulated
[50]
  expression of IL-6: reduced
[51]
  MMP-3 expression in joints: suppress
[52]
  TIMP-1: up-regulated
[53]
  IL-6 levels: reduced
[54]
  cardiopathy: QT prolongation
[55]
  IL-1 induced NF-κB activation: decrease
[56]; 10 μM curcumin
  Expression of IL-1β reduced: 70%
[56]; 20 μM curcumin
  Expression of IL-1β reduced: 75%
[57]
  TNF-α expression: reduced
[58]
  COX2 regulation: down regulation
[59]
  TIMP-1: up-regulated
[60]
  fibrosis: reduction
  inflammation: marked decrease
[61]
  TIMP-3: up-regulated
[62]
  MMP-1: Suppression
[63]
  pro-inflammatory cytokines: suppressed
[64]
  IL-1 inhibition of collagen type II expression: reversed
[65]
  pro-inflammatory cytokines: suppressed

## Oc1ccc(C=Cc2cc(O)cc(O)c2)cc1 [Resveratrol, resveratrol]
[66]
  levels of IL-8: reduced
[67]
  levels of MMP-13: reduced
[68]
  levels of MMP-3: reduced
[69]
  levels of IL-6: reduced
[70]
  levels of MMP-1: reduced

## epigallocatechin 3-gallate [EGCG]
[71]
  expression of COX-2: inhibited
[72]
  expression of MMP-3: inhibited
[73]
  expression of IL-6: inhibited
[74]
  expression of IL-8: inhibited
[75]
  expression of MMP-1: inhibited
[76]
  expression of MMP-13: inhibited

## IL-1Ra: recombinant interleukin-1 receptor antagonist
[77]
  effect on MMP-1 concentration: no effect
[78]
  concentration of total MMP-3 activity: 0.35 ng/mg tissue
